Patent US20240158412A1 (Faxian Therapeutics, LLC, priority 2021, published 2024)

target: USP7 (Homo sapiens, UniProt Q93009); test: biochemical
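Also: fluorescence intensity readout of USP7 enzymatic activity, reaction incubated 90 min at room temperature.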
Experimental: Example A. Biochemical Assay of USP7 Inhibitor Potency (IC50)
Fluorescence intensity assay of USP7 activity in the presence USP7 inhibitors. Recombinant USP7 protein (catalogue number E-519) and the fluorescence substrate ubiquitin-rhodamine 110 (Rh110) (catalogue number U-555) were purchased from Boston Biochem (840 Memorial Drive, Cambridge, MA 02139). The reaction was carried out in buffer 20 mM HEPES, pH 7.3, 150 mM NaCl, 1 mM TCEP, 125 μg/mL BSA at room temperature in a black 384-well Microplate (Greiner, catalog number 781076).
Test compounds were dissolved in DMSO to make 50 mM stock solution. […] In wells of a black 384-well Microplate, 15 μl of 100 pM of USP7 enzyme was added to each well with pre-diluted compounds and incubated at room temperature for 30 minutes, followed by addition of 10 μl of ubiquitin-rhodamine 110 (Rh110) substrate to reach 160 nM final concentration. The reaction mixtures were incubated for additional 90 minutes at room temperature. The fluorescence signal of the digested substrate was measured on an EnVision microplate reader (PerkinElmer,), using excitation at 485 nm and emission at 535 nm. The IC50 values were calculated using XLfit software.

USP7, sequence (Q93009 whole entry): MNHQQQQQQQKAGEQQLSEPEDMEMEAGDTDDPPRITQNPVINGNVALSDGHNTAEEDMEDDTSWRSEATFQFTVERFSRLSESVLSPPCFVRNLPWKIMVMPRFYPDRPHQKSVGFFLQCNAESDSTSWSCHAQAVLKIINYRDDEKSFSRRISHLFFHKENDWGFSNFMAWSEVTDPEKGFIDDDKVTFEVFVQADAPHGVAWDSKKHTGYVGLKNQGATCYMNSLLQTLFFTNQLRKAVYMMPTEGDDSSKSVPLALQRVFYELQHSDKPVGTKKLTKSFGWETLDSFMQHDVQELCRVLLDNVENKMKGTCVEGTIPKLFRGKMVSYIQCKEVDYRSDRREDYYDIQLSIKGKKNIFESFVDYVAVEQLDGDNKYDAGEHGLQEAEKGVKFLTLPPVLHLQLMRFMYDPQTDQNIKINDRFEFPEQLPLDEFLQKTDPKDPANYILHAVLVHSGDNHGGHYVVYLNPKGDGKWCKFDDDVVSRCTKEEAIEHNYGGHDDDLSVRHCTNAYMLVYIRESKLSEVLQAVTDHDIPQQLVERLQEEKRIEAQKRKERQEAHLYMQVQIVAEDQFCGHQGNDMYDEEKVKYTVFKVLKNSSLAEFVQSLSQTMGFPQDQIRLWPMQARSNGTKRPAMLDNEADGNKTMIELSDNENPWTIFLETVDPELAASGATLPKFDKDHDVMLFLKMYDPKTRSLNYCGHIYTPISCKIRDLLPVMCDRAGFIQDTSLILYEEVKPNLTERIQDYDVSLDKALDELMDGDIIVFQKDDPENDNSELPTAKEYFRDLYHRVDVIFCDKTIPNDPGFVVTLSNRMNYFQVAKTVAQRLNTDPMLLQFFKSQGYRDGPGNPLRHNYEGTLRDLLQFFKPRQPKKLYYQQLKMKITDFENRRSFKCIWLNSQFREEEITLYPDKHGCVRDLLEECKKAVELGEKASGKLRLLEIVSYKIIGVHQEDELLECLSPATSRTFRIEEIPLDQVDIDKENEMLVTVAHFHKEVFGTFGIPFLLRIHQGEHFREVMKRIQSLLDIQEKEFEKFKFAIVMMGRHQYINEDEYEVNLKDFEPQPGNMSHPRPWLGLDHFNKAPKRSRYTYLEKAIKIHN

SMILES | IC50 [nM]
N#Cc1cc2c(c(-c3ncnc4cc(Cn5c(=O)ccn(CC(F)(F)F)c5=O)sc34)c1)N([C@H]1CCNC1)CCC2 [Example 92, (S)-8-(6-((2,6-dioxo-3-(2,2,2-trifluoroethyl)-2,3-dihydropyrimidin-1(6H)-yl)methyl)thieno[3,2-d]pyrimidin-4-yl)-1-(pyrrolidin-3-yl)-1,2,3,4-tetrahydroquinoline-6-carbonitrile] | < 10
O=C1CCC(=O)N1Cc1cc2nccc(-c3cc(Cl)cc4c3N([C@H]3CCCNCC3)CCC4)c2s1 (single isomer, unassigned) [Example 47a] | < 10
O=C1COC(=O)N1Cc1cc2nccc(-c3cc(Cl)cc4c3N([C@@H]3CNC5(CCC5)C3)CCC4)c2s1 [Example 151, (S)-3-((7-(6-chloro-1-(5-azaspiro[3.4]octan-7-yl)-1,2,3,4-tetrahydroquinolin-8-yl)thieno[3,2-b]pyridin-2-yl)methyl)oxazolidine-2,4-dione] | < 10
O=C1CCC(=O)N1Cc1cc2nccc(-c3cc(Cl)cc4c3N([C@H]3CNC[C@@H]3F)CCC4)c2s1 (single isomer, unassigned) [Example 96a] | < 10
O=C1CCC(=O)N1Cc1cc2nccc(-c3cc(C(F)(F)F)cc4c3N([C@@H]3CCNC3)CCC4)c2s1 (single isomer, unassigned) [Example 78] | 10 to 100
O=C1CCC(=O)N1Cc1cc2nccc(-c3cc(Cl)cc4c3N(C3CC5(CCCN5)C3)CCC4)c2s1 (centres unmarked) [Example 180, 1-((7-(6-chloro-1-(5-azaspiro[3.4]octan-2-yl)-1,2,3,4-tetrahydroquinolin-8-yl)thieno[3,2-b]pyridin-2-yl)methyl)pyrrolidine-2,5-dione] | 10 to 100
O=c1ccn(C2CC2)c(=O)n1Cc1cc2nccc(-c3cc(Cl)cc4c3N([C@H]3CCNC3)CCC4)c2s1 [Example 72, (S)-3-((7-(6-chloro-1-(pyrrolidin-3-yl)-1,2,3,4-tetrahydroquinolin-8-yl)thieno[3,2-b]pyridin-2-yl)methyl)-1-cyclopropylpyrimidine-2,4(1H,3H)-dione] | < 10
O=c1ccn(C2CC(F)(F)C2)c(=O)n1Cc1cc2nccc(-c3cc(Cl)cc4c3N([C@H]3CCNC3)CCC4)c2s1 [Example 75] | < 10
CN1CCC(CN2CCCc3cc(Cl)cc(-c4ccnc5cc(CN6C(=O)CCC6=O)sc45)c32)CC1 [Example 50, 1-[[7-[6-chloro-1-[(1-methyl-4-piperidyl)methyl]-3,4-dihydro-2H-quinolin-8-yl]thieno[3,2-b]pyridin-2-yl]methyl]pyrrolidine-2,5-dione] | 10 to 100
O=c1ccn(CCOC(F)F)c(=O)n1Cc1cc2nccc(-c3cc(Cl)cc4c3N([C@H]3CCNC3)CCC4)c2s1 [Example 61, (S)-3-((7-(6-chloro-1-(pyrrolidin-3-yl)-1,2,3,4-tetrahydroquinolin-8-yl)thieno[3,2-b]pyridin-2-yl)methyl)-1-(2-(difluoromethoxy)ethyl)pyrimidine-2,4(1H,3H)-dione] | < 10
COC(=O)[C@]1(C)C[C@H](N2CCCc3cc(Cl)cc(-c4ccnc5cc(CN6C(=O)CCC6=O)sc45)c32)CN1 (single isomer, unassigned) [Example 204] | 101 to 1000
O=c1ccn(CC(F)(F)F)c(=O)n1Cc1cc2nccc(-c3cc(Cl)cc4c3N(C3CNC3)CCC4)c2s1 [Example 24, 3-[[7-[1-(azetidin-3-yl)-6-chloro-3,4-dihydro-2H-quinolin-8-yl]thieno[3,2-b]pyridin-2-yl]methyl]-1-(2,2,2-trifluoroethyl)pyrimidine-2,4-dione] | < 10
O=C1CCC(=O)N1Cc1cc2nccc(-c3cc(Cl)cc4c3N(C3CN(C5COC5)C3)CCC4)c2s1 [Example 6, 1-((7-(6-chloro-1-(1-(oxetan-3-yl)azetidin-3-yl)-1,2,3,4-tetrahydroquinolin-8-yl)thieno[3,2-b]pyridin-2-yl)methyl)pyrrolidine-2,5-dione] | 10 to 100
CC1(C)CC(N2CCCc3cc(C#N)cc(-c4ccnc5cc(Cn6ncc(C(C)(C)C)cc6=O)sc45)c32)CN1 (stereo in doubt) [Example 132, (S)-8-(2-((4-(tert-butyl)-6-oxopyridazin-1(6H)-yl)methyl)thieno[3,2-b]pyridin-7-yl)-1-(5,5-dimethylpyrrolidin-3-yl)-1,2,3,4-tetrahydroquinoline-6-carbonitrile] | < 10
NC(=O)c1cc(-c2ccnc3cc(Cn4c(=O)ccn(CC(F)(F)F)c4=O)sc23)c2c(c1)[C@@H]1C[C@@H]1CN2[C@@H]1CNC2(CCC2)C1 [Example 170, (1aS,7bR)-4-(2-((2,6-dioxo-3-(2,2,2-trifluoroethyl)-3,6-dihydropyrimidin-1(2H)-yl)methyl)thieno[3,2-b]pyridin-7-yl)-3-((S)-5-azaspiro[3.4]octan-7-yl)-1a,2,3,7b-tetrahydro-1H-cyclopropa[c]quinoline-6-carboxamide] | < 10
N[C@H]1C[C@@H](N2CCCc3cc(Cl)cc(-c4ccnc5cc(CN6C(=O)CCC6=O)sc45)c32)C1 (single isomer, unassigned) [Example 42a, cis-1-((7-(1-(3-aminocyclobutyl)-6-chloro-1,2,3,4-tetrahydroquinolin-8-yl)thieno[3,2-b]pyridin-2-yl)methyl)pyrrolidine-2,5-dione] | < 10
COCCn1ccc(=O)n(Cc2cc3nccc(-c4cc(Cl)cc5c4N(C4CNC4)CCC5)c3s2)c1=O [Example 30, 3-[[7-[1-(azetidin-3-yl)-6-chloro-3,4-dihydro-2H-quinolin-8-yl]thieno[3,2-b]pyridin-2-yl]methyl]-1-(2-methoxyethyl)pyrimidine-2,4-dione] | < 10
COC(=O)[C@]1(C)C[C@@H](N2CCCc3cc(Cl)cc(-c4ccnc5cc(CN6C(=O)CCC6=O)sc45)c32)CN1 (single isomer, unassigned) [Example 202] | 10 to 100
Oc1ccnn1Cc1cc2nccc(-c3cc(Cl)cc4c3N(C3CNC3)CCC4)c2s1 [Example 37, 2-[[7-[1-(azetidin-3-yl)-6-chloro-3,4-dihydro-2H-quinolin-8-yl]thieno[3,2-b]pyridin-2-yl]methyl]pyrazol-3-ol] | > 1000
Cc1ccc(=O)n(Cc2cc3nccc(-c4cc(Cl)cc5c4N(C4CNC4)CCC5)c3s2)n1 [Example 17, 2-[[7-[1-(azetidin-3-yl)-6-chloro-3,4-dihydro-2H-quinolin-8-yl]thieno[3,2-b]pyridin-2-yl]methyl]-6-methyl-pyridazin-3-one] | 10 to 100
O=C1[C@@H]2[C@H]3CC[C@H](C3)[C@@H]2C(=O)N1Cc1cc2nccc(-c3cc(Cl)cc4c3N([C@@H]3CNC5(CCC5)C3)CCC4)c2s1 [Example 155, (3aR,4S,7R,7aS)-2-((7-(6-chloro-1-((S)-5-azaspiro[3.4]octan-7-yl)-1,2,3,4-tetrahydroquinolin-8-yl)thieno[3,2-b]pyridin-2-yl)methyl)hexahydro-1H-4,7-methanoisoindole-1,3(2H)-dione] | 10 to 100
CN1CC2(CC(N3CCCc4cc(Cl)cc(-c5ccnc6cc(CN7C(=O)CCC7=O)sc56)c43)C2)C1 [Example 138, 1-[[7-[6-chloro-1-(2-methyl-2-azaspiro[3.3]heptan-6-yl)-3,4-dihydro-2H-quinolin-8-yl]thieno[3,2-b]pyridin-2-yl]methyl]pyrrolidine-2,5-dione] | 10 to 100
C[C@]1(CO)C[C@H](N2CCCc3cc(Cl)cc(-c4ccnc5c(F)c(CN6C(=O)CCC6=O)sc45)c32)CN1 [Example 210, 1-[[7-[6-chloro-1-[(3S,5R)-5-(hydroxymethyl)-5-methyl-pyrrolidin-3-yl]-3,4-dihydro-2H-quinolin-8-yl]-3-fluoro-thieno[3,2-b]pyridin-2-yl]methyl]pyrrolidine-2,5-dione] | < 10
CC(C)(C)c1cnn(Cc2cc3nccc(-c4cc(C#N)cc5c4N([C@@H]4CN[C@@](C)(CO)C4)C(=O)CO5)c3s2)c(=O)c1 [Example 225, 5-(2-((4-(tert-butyl)-6-oxopyridazin-1(6H)-yl)methyl)thieno[3,2-b]pyridin-7-yl)-4-((3S,5R)-5-(hydroxymethyl)-5-methylpyrrolidin-3-yl)-3-oxo-3,4-dihydro-2H-benzo[b][1,4]oxazine-7-carbonitrile] | < 10

Next, values leading:

IC50 [nM] | SMILES
< 10 | Cc1cnn(Cc2cc3nccc(-c4cc(C#N)cc5c4N(C4CNC6(CCC6)C4)CCC5)c3s2)c(=O)c1 (single isomer, unassigned) [Example 164a]
10 to 100 | O=C1CCC(=O)N1Cc1cc2nccc(-c3cccc4c3N([C@H]3CCNC3)CCO4)c2s1 (single isomer, unassigned) [Example 111a]
101 to 1000 | O=C1CCC(=O)N1Cc1cc2nccc(-c3cc(Cl)cc4c3N(C3CNC5(CCC5)C3)CCO4)c2s1 (single isomer, unassigned) [Example 171a]
< 10 | N#Cc1cc(-c2ccnc3cc(Cn4ncc(C5(C(F)(F)F)CC5)cc4=O)sc23)c2c(c1)[C@@H]1C[C@@H]1CN2[C@@H]1CN[C@@H](CO)C1 [Example 194a, (1aS,7bR)-3-((3S,5R)-5-(hydroxymethyl)pyrrolidin-3-yl)-4-(2-((6-oxo-4-(1-(trifluoromethyl)cyclopropyl)pyridazin-1(6H)-yl)methyl)thieno[3,2-b]pyridin-7-yl)-1a,2,3,7b-tetrahydro-1H-cyclopropa[c]quinoline-6-carbonitrile]
< 10 | O=C1CCC(=O)N1Cc1cc2nccc(-c3cc(Cl)cc4c3N([C@@H]3CNC(CO)(CO)C3)CCC4)c2s1 (single isomer, unassigned) [Example 181a]
< 10 | CC(C)(C)c1cnn(Cc2cc3nccc(-c4cc(Cl)cc5c4N(C4CNC(CO)(CO)C4)CCO5)c3s2)c(=O)c1 (stereo in doubt) [Example 213b, (S)-2-((7-(4-(5,5-bis(hydroxymethyl)pyrrolidin-3-yl)-7-chloro-3,4-dihydro-2H-benzo[b][1,4]oxazin-5-yl)thieno[3,2-b]pyridin-2-yl)methyl)-5-(tert-butyl)pyridazin-3(2H)-one]
> 1000 | CC(C)(C)c1cnn(Cc2cc3nccc(-c4cc(C#N)cc5c4N([C@H]4CN[C@@H](CO)C4)C[C@@H]4C[C@H]54)c3s2)c(=O)c1 (single isomer, unassigned) [Example 193a]
< 10 | O=C1CCC(=O)N1Cc1cc2ncnc(-c3cc(Cl)cc4c3N(C3CNC5(CCC5)C3)CCC4)c2s1 (single isomer, unassigned) [Example 161a]
